Measured values published in patent US20170073337A1, “DIHYDROTHIAZINE AND DIHYDROOXAZINE DERIVATIVES HAVING BACE1 INHIBITORY ACTIVITY” (Shionogi & Co., Ltd., priority 2014, published 2017).

How the values were obtained:
Recombinant human BACE1 = biological target: T1, Recombinant human BACE1 (Homo sapiens, UniProt P56817); assay: Assay of BACE1 inhibitory activity: 384-well; type: biochemical; conditions: Assay format 384-well
T1 construct: purchased R&D Systems
Outline: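 Recombinant human BACE1 was incubated 2 h at 25 °C with a biotin/Eu-cryptate-labelled peptide substrate and compound in DMSO. Streptavidin-XL665 in pH 7.0 phosphate buffer containing 0.8 mol/L KF was then added for 30 min at 25 °C for HTRF detection.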

[1] = tested on: Aβ production in neuroblastoma SH-SY5Y cells (SH/APPwt); assay: β-amyloid (Aβ) production inhibitory effect in cell: 384-well; type: cell-based; conditions: Homo sapiens, Assay format 384-well
Outline: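 SH-SY5Y cells overexpressing human wild-type APP were seeded together with test compound (final DMSO 1%) and cultured for 21 h. Aβ1-40 in the supernatant was measured by HTRF after overnight incubation at 4 °C in the dark, reading fluorescence at 620 and 665 nm.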

CYP2C9 = biological target: T2, CYP2C9 (Homo sapiens, UniProt P11712); assay: CYP inhibition test (CYP2C9); type: in vitro ADME; conditions: pooled human liver microsomes; tolbutamide methyl-hydroxylation
T2 construct: The commercially available pooled human liver microsomes are used as an enzyme resource; from tissue; host or cells: pooled human liver microsomes
T2 sequence (P11712 whole entry): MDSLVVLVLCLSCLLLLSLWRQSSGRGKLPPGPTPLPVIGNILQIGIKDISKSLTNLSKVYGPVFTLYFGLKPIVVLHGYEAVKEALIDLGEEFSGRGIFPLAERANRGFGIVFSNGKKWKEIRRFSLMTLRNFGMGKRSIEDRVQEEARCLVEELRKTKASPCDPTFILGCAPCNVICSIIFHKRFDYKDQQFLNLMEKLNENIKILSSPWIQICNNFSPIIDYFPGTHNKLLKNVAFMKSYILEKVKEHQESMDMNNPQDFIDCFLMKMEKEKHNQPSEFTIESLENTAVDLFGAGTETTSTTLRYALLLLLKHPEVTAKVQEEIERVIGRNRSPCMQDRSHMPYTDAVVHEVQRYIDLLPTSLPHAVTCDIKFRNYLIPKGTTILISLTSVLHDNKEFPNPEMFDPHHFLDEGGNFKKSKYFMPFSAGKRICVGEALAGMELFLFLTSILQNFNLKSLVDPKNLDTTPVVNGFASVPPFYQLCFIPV
Outline: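 Pooled human liver microsomes (0.2 mg protein/mL) were incubated at 37 °C with NADPH, compound at 1, 5, 10, 20 μmol/L and marker substrates: tolbutamide 100 μmol/L (2C9), S-mephenytoin 50 μmol/L (2C19), dextromethorphan 5 μmol/L (2D6), terfenadine 1 μmol/L (3A4). Metabolites were measured by LC/MS/MS; IC50 came from logistic fitting against DMSO control.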

T1 sequence (P56817 46-501): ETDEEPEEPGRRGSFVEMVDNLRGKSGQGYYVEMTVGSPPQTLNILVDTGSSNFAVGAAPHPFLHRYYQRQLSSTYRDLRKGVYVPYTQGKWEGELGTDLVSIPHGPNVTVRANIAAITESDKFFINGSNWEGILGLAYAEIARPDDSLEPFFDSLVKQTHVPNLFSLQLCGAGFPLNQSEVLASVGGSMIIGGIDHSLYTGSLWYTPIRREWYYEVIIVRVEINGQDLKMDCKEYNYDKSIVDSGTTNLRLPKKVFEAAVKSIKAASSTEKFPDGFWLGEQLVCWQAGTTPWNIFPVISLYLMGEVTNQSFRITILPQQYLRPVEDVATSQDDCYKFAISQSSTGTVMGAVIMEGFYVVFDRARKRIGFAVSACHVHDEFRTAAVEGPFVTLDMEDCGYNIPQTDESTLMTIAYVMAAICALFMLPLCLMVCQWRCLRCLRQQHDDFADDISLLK

CC(F)(F)[C@H]1OC(N)=N[C@](C)(c2cc(NC(=O)c3ccc(C#N)cn3)ccc2F)[C@H]1F [Compound I-40]
IC50 (Recombinant human BACE1): 21.1 nM
IC50 [1]: 6 nM
IC50 (CYP2C9): ≥ 20000 nM

C[C@H]1[C@@H](C(F)(F)F)OC(N)=N[C@]1(C)c1cc(NC(=O)c2cnc(OCF)cn2)ccc1F [Compound I-41]
IC50 (Recombinant human BACE1): 14.6 nM
IC50 [1]: 15 nM

COc1cnc(C(=O)Nc2ccc(F)c([C@@]3(C)N=C(N)O[C@H](C(C)(F)F)[C@@H]3F)c2)cn1 [Compound I-42]
IC50 (Recombinant human BACE1): 14.7 nM
IC50 [1]: 21 nM

C[C@H]1SC(N)=N[C@](C)(c2cc(NC(=O)c3cnc(OCC(F)(F)F)cn3)ccc2F)[C@H]1F [Compound I-46]
IC50 (Recombinant human BACE1): 23.6 nM
IC50 [1]: 2.4 nM

C[C@H]1SC(N)=N[C@](C)(c2cc(NC(=O)c3cnc(OC(F)F)cn3)ccc2F)[C@H]1F [Compound I-47]
IC50 (Recombinant human BACE1): 4.77 nM
IC50 [1]: 1.2 nM

C[C@H]1SC(N)=N[C@](C)(c2cc(NC(=O)c3cnc(OCC(F)F)cn3)ccc2F)[C@H]1F [Compound I-48]
IC50 (Recombinant human BACE1): 7.49 nM
IC50 [1]: 5.4 nM

C[C@H]1SC(N)=N[C@](C)(c2cc(NC(=O)c3coc(CF)n3)ccc2F)[C@H]1F [Compound I-49]
IC50 (Recombinant human BACE1): 3.13 nM
IC50 [1]: 0.025 nM
IC50 (CYP2C9): ≥ 10000 nM

COc1ccc(C(=O)Nc2ccc(F)c([C@@]3(C)N=C(N)S[C@H](C)[C@@H]3F)c2)nc1 [Compound I-50]
IC50 (Recombinant human BACE1): 7.77 nM
IC50 [1]: 0.39 nM

C[C@H]1SC(N)=N[C@](C)(c2cc(NC(=O)c3ccc(OCF)cn3)ccc2F)[C@H]1F [Compound I-51]
IC50 (Recombinant human BACE1): 17.5 nM
IC50 [1]: 0.41 nM

Cc1cc(C#N)cnc1C(=O)Nc1ccc(F)c([C@@]2(C)N=C(N)S[C@H](C)[C@@H]2F)c1 [Compound I-52]
IC50 (Recombinant human BACE1): 7.62 nM
IC50 [1]: 0.42 nM

C[C@H]1SC(N)=N[C@](C)(c2cc(NC(=O)c3ncc(OCC(F)(F)F)cn3)ccc2F)[C@H]1F [Compound I-53]
IC50 (Recombinant human BACE1): 14.5 nM
IC50 [1]: 0.89 nM

COc1cnc(C(=O)Nc2ccc(F)c([C@@]3(C)N=C(N)SCC34CC(F)(F)C4)c2)cn1 [Compound I-55]
IC50 (Recombinant human BACE1): 19.8 nM
IC50 [1]: 0.3 nM
IC50 (CYP2C9): ≥ 20000 nM

C[C@]1(c2cc(NC(=O)c3ccc(C#N)cn3)ccc2F)N=C(N)SCC12CC(F)(F)C2 [Compound I-59]
IC50 (Recombinant human BACE1): 10.9 nM
IC50 [1]: 0.058 nM
IC50 (CYP2C9): ≥ 20000 nM

C[C@H]1SC(N)=N[C@](C)(c2cc(NC(=O)c3cnc(OCF)cn3)ccc2F)C12CC(F)(F)C2 [Compound I-62]
IC50 (Recombinant human BACE1): 7.74 nM
IC50 [1]: 0.25 nM
IC50 (CYP2C9): ≥ 10000 nM

C[C@H]1SC(N)=N[C@](C)(c2cc(NC(=O)c3ccc(F)cn3)ccc2F)C12CC(F)(F)C2 [Compound I-63]
IC50 (Recombinant human BACE1): 11.9 nM
IC50 [1]: 5.4 nM
IC50 (CYP2C9): ≥ 10000 nM

C[C@H]1SC(N)=N[C@](C)(c2cc(NC(=O)c3ncc(C#N)cc3Cl)ccc2F)[C@H]1F [Compound I-64]
IC50 (Recombinant human BACE1): 7.06 nM
IC50 [1]: 0.22 nM

C[C@H]1SC(N)=N[C@](C)(c2cc(NC(=O)c3cnc(C(F)F)cn3)ccc2F)[C@H]1F [Compound I-65]
IC50 (Recombinant human BACE1): 21.9 nM
IC50 [1]: 1.1 nM

CC[C@H]1SC(N)=N[C@](C)(c2cc(NC(=O)c3cnc(OCF)cn3)ccc2F)[C@H]1F [Compound I-66]
IC50 (Recombinant human BACE1): 5.62 nM
IC50 [1]: 0.13 nM

CC[C@H]1SC(N)=N[C@](C)(c2cc(NC(=O)c3ccc(OCF)cn3)ccc2F)[C@H]1F [Compound I-67]
IC50 (Recombinant human BACE1): 5.47 nM
IC50 [1]: 0.56 nM

CC[C@H]1SC(N)=N[C@](C)(c2cc(NC(=O)c3ccc(F)cn3)ccc2F)[C@H]1F [Compound I-70]
IC50 (Recombinant human BACE1): 10.6 nM
IC50 [1]: 2 nM

COc1cnc(C(=O)Nc2ccc(F)c([C@@]3(C)N=C(N)O[C@H]([C@@H](C)F)[C@@H]3F)c2)cn1 [Compound I-71]
IC50 (Recombinant human BACE1): 12 nM
IC50 [1]: 0.54 nM
IC50 (CYP2C9): ≥ 20000 nM

CC(F)(F)[C@H]1OC(N)=N[C@](C)(c2cc(NC(=O)c3cnc(OCC(F)(F)F)cn3)ccc2F)[C@H]1F [Compound I-75]
IC50 (Recombinant human BACE1): 15.6 nM
IC50 [1]: 8.3 nM
IC50 (CYP2C9): ≥ 10000 nM

CC#CCOc1cnc(C(=O)Nc2ccc(F)c([C@@]3(C)N=C(N)O[C@H](C(C)(F)F)[C@@H]3F)c2)cn1 [Compound I-76]
IC50 (Recombinant human BACE1): 3.77 nM
IC50 [1]: 1.6 nM

CC(F)(F)[C@H]1OC(N)=N[C@](C)(c2cc(NC(=O)c3cnc(OCC(F)F)cn3)ccc2F)[C@H]1F [Compound I-77]
IC50 (Recombinant human BACE1): 45.8 nM
IC50 [1]: 79 nM
IC50 (CYP2C9): ≥ 10000 nM

COCC(F)(F)[C@H]1OC(N)=N[C@](C)(c2cc(NC(=O)c3cnc(OCF)cn3)ccc2F)[C@H]1F [Compound I-79]
IC50 (Recombinant human BACE1): 13.2 nM
IC50 [1]: 4.5 nM
IC50 (CYP2C9): ≥ 10000 nM

C[C@]1(c2cc(NC(=O)c3ccc(C#N)cn3)ccc2F)N=C(N)O[C@H](C(F)(F)C2CC2)[C@@H]1F [Compound I-81]
IC50 (Recombinant human BACE1): 16.9 nM
IC50 [1]: 21 nM
IC50 (CYP2C9): ≥ 10000 nM

C[C@]1(c2cc(NC(=O)c3cnc(OCF)cn3)ccc2F)N=C(N)O[C@H](C(F)(F)C2CC2)[C@@H]1F [Compound I-82]
IC50 (Recombinant human BACE1): 25.1 nM
IC50 [1]: 17 nM

COc1cnc(C(=O)Nc2ccc(F)c([C@@]3(C)N=C(N)O[C@H](C(F)(F)C4CC4)[C@@H]3F)c2)cn1 [Compound I-83]
IC50 (Recombinant human BACE1): 30.3 nM
IC50 [1]: 14 nM

C[C@H]1SC(N)=N[C@](C)(c2cc(NC(=O)c3cnc(OCC4CC4)cn3)ccc2F)[C@H]1F [Compound I-85]
IC50 (Recombinant human BACE1): 15.4 nM
IC50 [1]: 4.8 nM

COc1cnc(C(=O)Nc2ccc(F)c([C@@]3(C)N=C(N)O[C@H](C(F)F)[C@@H]3C)c2)cn1 [Compound I-86]
IC50 (Recombinant human BACE1): 101 nM
IC50 [1]: 2.21 nM
IC50 (CYP2C9): ≥ 20000 nM

CO[C@H]1[C@@H](C)SC(N)=N[C@]1(C)c1cc(NC(=O)c2cnc(OCF)cn2)ccc1F [Compound I-87]
IC50 (Recombinant human BACE1): 21.4 nM
IC50 [1]: 0.66 nM
IC50 (CYP2C9): ≥ 20000 nM

CO[C@H]1[C@@H](C)SC(N)=N[C@]1(C)c1cc(NC(=O)c2ccc(C#N)cn2)ccc1F [Compound I-88]
IC50 (Recombinant human BACE1): 14.4 nM
IC50 [1]: 0.13 nM
IC50 (CYP2C9): ≥ 20000 nM

CO[C@H]1[C@@H](C)SC(N)=N[C@]1(C)c1cc(NC(=O)c2ccc(F)cn2)ccc1F [Compound I-89]
IC50 (Recombinant human BACE1): 15.1 nM
IC50 [1]: 1.5 nM
IC50 (CYP2C9): ≥ 20000 nM

COc1cnc(C(=O)Nc2ccc(F)c([C@@]3(C)N=C(N)S[C@H](C)[C@@H]3OC)c2)cn1 [Compound I-90]
IC50 (Recombinant human BACE1): 15.3 nM
IC50 [1]: 0.51 nM
IC50 (CYP2C9): ≥ 20000 nM

COC[C@H]1SC(N)=N[C@](C)(c2cc(NC(=O)c3cnc(OCF)cn3)ccc2F)[C@H]1F [Compound I-91]
IC50 (Recombinant human BACE1): 6.37 nM
IC50 [1]: 0.25 nM

C[C@]1(c2cc(NC(=O)c3ccc(C#N)cn3)ccc2F)N=C(N)O[C@H](C2(F)CC2)[C@@H]1F [Compound I-96]
IC50 (Recombinant human BACE1): 21.2 nM
IC50 [1]: 1.8 nM
IC50 (CYP2C9): ≥ 10000 nM

C[C@]1(c2cc(NC(=O)c3ccc(OCF)cn3)ccc2F)N=C(N)O[C@H](C2(F)CC2)[C@@H]1F [Compound I-101]
IC50 (Recombinant human BACE1): 25.3 nM
IC50 [1]: 11 nM

COc1cnc(C(=O)Nc2cccc([C@@]3(C)N=C(N)S[C@H](C)[C@@H]3F)c2)cn1 [Compound I-103]
IC50 (Recombinant human BACE1): 17.3 nM
IC50 [1]: 2.1 nM
IC50 (CYP2C9): ≥ 10000 nM

C[C@H]1SC(N)=N[C@](C)(c2cccc(NC(=O)c3cnc(OCF)cn3)c2)[C@H]1F [Compound I-104]
IC50 (Recombinant human BACE1): 10.8 nM
IC50 [1]: 0.49 nM
IC50 (CYP2C9): ≥ 10000 nM

C[C@H]1SC(N)=N[C@](C)(c2cccc(NC(=O)c3cnc(C(F)F)cn3)c2)[C@H]1F [Compound I-106]
IC50 (Recombinant human BACE1): 19.4 nM
IC50 [1]: 2.6 nM
IC50 (CYP2C9): ≥ 20000 nM

COc1ccc(C(=O)Nc2ccc(F)c([C@@]3(C)N=C(N)S[C@H](C)[C@@H]3F)c2)nn1 [Compound I-108]
IC50 (Recombinant human BACE1): 136 nM
IC50 [1]: 8.8 nM

C[C@]1(c2cc(NC(=O)c3cnc(OCF)cn3)ccc2F)N=C(N)S[C@H](CO)[C@@H]1F [Compound I-109]
IC50 (Recombinant human BACE1): 10.8 nM
IC50 [1]: 0.45 nM

C[C@H]1SC(N)=N[C@](C)(c2cc(NC(=O)c3ccc(F)cn3)ccc2F)[C@H]1F [Compound I-116]
IC50 (Recombinant human BACE1): 7.84 nM
IC50 [1]: 0.99 nM
